Assay results published in patent US20190233287A1, “Methods To Prepare Haloamines Using At Least One Solid Reactant And Products Made Therefrom” (Buckman Laboratories International, Inc., priority 2018, published 2019).

Legend:
[1] = weak acid; cited from earlier work
[2] = Chlorate ion concentration by Ion Chromatography; type: physicochemical; details: aqueous solutions of the Dantochlor product (1.5-72 ppm); detection limit 0.5 ppm
Description: The chlorate ion concentration was also analyzed for various aqueous solutions of the Dantochlor product (1.5-72 ppm); chlorate ion was not detected above the method's detection limit of 0.5 ppm.

[3] = Chlorine content, MCA content and pH of solutions, measured at once and again after 1 hour; type: physicochemical; details: 0.1 wt % Dantochlor aqueous solution, pH 11.2, measured instantly
Description: In this experiment the chlorine-releaser was granular Dantochlor (DCDMH), and the ammonium source was BUSPERSE 2454 (already in the form of an aqueous ammonium sulfate). A one liter aqueous solution containing 0.1 wt % Dantochlor was prepared. This aqueous solution was adjusted to a pH of 11.2 using NaOH (50%).
A molar equivalent amount of BUSPERSE 2454 was ±0.7 ml for a one liter solution. A 30% molar overdosage was used and thus, 1 ml of BUSPERSE 2454 was added to the aqueous solution of Dantochlor.

OCl [HOCl, hypochlorous acid]
pKa [1]: 7.5

CC1(C)C(=O)N(Cl)C(=O)N1Cl [Dantochlor, dichlorodimethylhydantoin]
chlorate ion concentration [2]: < 0.5 ppm
Free Cl2 [3]: 274 ppm Cl2
Total Cl2 [3]: 600 ppm Cl2
